Data from ChEMBL document CHEMBL1201862, “PubChem BioAssay data set” (2004).
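Test compounds were applied to cells in 96-well plates for 48 hours at 5 doses. At the GI50, growth is halved.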 Active and inactive are the calls of the source. Rule as the data show it: active = GI50 up to about 1.1 µM and inactive = higher.

Legend:
Assay in all cases: NCI anticancer screen, dose series, 48 h
786-0 = tested on: 786-0
CAKI-1 = tested on: CAKI-1
K562 = tested on: K562
RXF 393 = tested on: RXF 393
SF-295 = tested on: SF-295
HCT-15 = tested on: HCT-15
MDA-N = tested on: MDA-N
MOLT-4 = tested on: MOLT-4
OVCAR-8 = tested on: OVCAR-8
SK-MEL-2 = tested on: SK-MEL-2
A498 = tested on: A498
LOX IMVI = tested on: LOX IMVI
HT-29 = tested on: HT-29
SN12C = tested on: SN12C
SK-MEL-28 = tested on: SK-MEL-28
HOP-62 = tested on: HOP-62
NCI/ADR-RES = tested on: NCI/ADR-RES
ACHN = tested on: ACHN
Malme-3M = tested on: Malme-3M
CCRF-CEM = tested on: CCRF-CEM

Compound | GI50 (786-0) | GI50 (CAKI-1) | GI50 (K562) | GI50 (RXF 393) | GI50 (SF-295) | GI50 (HCT-15) [µM] | GI50 (MDA-N) | GI50 (MOLT-4) | GI50 (OVCAR-8) | GI50 (SK-MEL-2) | GI50 (A498) | GI50 (LOX IMVI) | GI50 (HT-29) | GI50 (SN12C) | GI50 (SK-MEL-28) | GI50 (HOP-62) | GI50 (NCI/ADR-RES) | GI50 (ACHN) | GI50 (Malme-3M) | GI50 (CCRF-CEM)
O[C@@H]1[C@H](OC2c3ccccc3-c3ccccc32)[C@H](OCc2ccccc2)[C@@H]2OC[C@H]1O2 | 19.7 µM (inactive) | > 100 µM (inactive) | > 100 µM (inactive) | > 100 µM (inactive) | > 100 µM (inactive) | > 100 | > 100 µM (inactive) | 34.1 µM (inactive) | 39.6 µM (inactive) | > 100 µM (inactive) | > 100 µM (inactive) | > 100 µM (inactive) | > 100 µM (inactive) | > 100 µM (inactive) | > 100 µM (inactive) | 25.8 µM (inactive) | > 100 µM (inactive) | > 100 µM (inactive) | > 100 µM (inactive) | 42.4 µM (inactive)
CSc1c(C)[n+]([O-])c2cc(Cl)c(Cl)cc2[n+]1[O-] | 17.3 µM (inactive) | 18.2 µM (inactive) | 3.32 µM (inactive) | 21.5 µM (inactive) | > 56.8 µM (inactive) | 17 | 16 µM (inactive) | 2.38 µM (inactive) | 16.6 µM (inactive) | 19.9 µM (inactive) | 21.6 µM (inactive) | 17.9 µM (inactive) | 18.1 µM (inactive) | 16.4 µM (inactive) | 19 µM (inactive) | 33.3 µM (inactive) | 17.8 µM (inactive) | 16.8 µM (inactive) | 16.9 µM (inactive) | 2.32 µM (inactive)
CCOC(=O)Cc1nc2c(O)ncnc2n1C1OC(COC(C)=O)C(OC(C)=O)C1OC(C)=O (stereo not given) | > 100 µM (inactive) | > 100 µM (inactive) | > 100 µM (inactive) | > 100 µM (inactive) | > 100 µM (inactive) | > 100 | > 100 µM (inactive) | > 100 µM (inactive) | > 100 µM (inactive) | > 100 µM (inactive) | > 100 µM (inactive) | > 100 µM (inactive) | > 100 µM (inactive) | > 100 µM (inactive) | > 100 µM (inactive) | > 100 µM (inactive) | > 100 µM (inactive) | > 100 µM (inactive) | > 100 µM (inactive) | > 100 µM (inactive)
Cc1csc2c(P(=O)(OC(C)C)OC(C)C)c(-c3ccccc3)cn12 | 15.7 µM (inactive) | 18.2 µM (inactive) | 17.6 µM (inactive) | 17.5 µM (inactive) | 16.9 µM (inactive) | 15.9 | 17.9 µM (inactive) | 13 µM (inactive) | 17.4 µM (inactive) | 16 µM (inactive) | 18.7 µM (inactive) | 13.6 µM (inactive) | 15.6 µM (inactive) | 17.1 µM (inactive) | 17.7 µM (inactive) | 18.2 µM (inactive) | 18 µM (inactive) | 15 µM (inactive) | 19.9 µM (inactive) | 16.7 µM (inactive)
CCCCCCCCCCCCCCCCNC(=O)/C(O)=C/C(=O)c1ccc(C)cc1 | > 10 µM (inactive) | > 10 µM (inactive) | > 10 µM (inactive) | > 10 µM (inactive) | > 10 µM (inactive) | > 10 | > 10 µM (inactive) | > 10 µM (inactive) | > 10 µM (inactive) | > 10 µM (inactive) | > 10 µM (inactive) | > 10 µM (inactive) | > 10 µM (inactive) | > 10 µM (inactive) | > 10 µM (inactive) | > 10 µM (inactive) | > 10 µM (inactive) | > 10 µM (inactive) | > 10 µM (inactive) | > 10 µM (inactive)
